Test results as given in patent publication US7998978B2 (Pfizer Inc., priority 2006, dated 2011).
pKi: −log10 of the molar value.

Molecular target: T1, JNK1α1 (Homo sapiens, UniProt P45983)
T1 construct: catalytic domain containing amino acids 1-364 and N-terminal hexahistidine tag; hexahistidine (His6) (N); made in house; host or cells: E. coli BL21 (DE3)
Experiment: Coupled spectrophotometric (PK/LDH) JNK1α1 assay: % inhibition and Ki determination
Format: biochemical
Conditions: for inhibition at 1 µM / inhibition at 10 µM: read-out: % Inhibition JNK-1; for pKi: JNK-1
Procedure, shortened: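 Initial rates were taken from the absorbance decrease at 340 nm at 30° C. Ki was fitted with a tight-binding model over 11 concentrations (top 100 μM); single-point inhibition was tested at 1 or 10 μM.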

T1 sequence (P45983 1-364): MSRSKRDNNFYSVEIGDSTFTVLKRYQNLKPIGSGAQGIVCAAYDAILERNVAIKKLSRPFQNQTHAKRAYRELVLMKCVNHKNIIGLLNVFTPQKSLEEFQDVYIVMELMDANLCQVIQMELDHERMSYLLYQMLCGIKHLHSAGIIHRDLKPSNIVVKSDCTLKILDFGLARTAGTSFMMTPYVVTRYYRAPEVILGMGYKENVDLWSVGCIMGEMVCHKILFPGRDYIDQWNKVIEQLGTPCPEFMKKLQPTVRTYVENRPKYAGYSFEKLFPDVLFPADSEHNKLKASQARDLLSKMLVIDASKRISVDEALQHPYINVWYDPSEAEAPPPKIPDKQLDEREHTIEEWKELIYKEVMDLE

| SMILES | pKi | further results |
| --- | --- | --- |
| O=C(NC1(CO)CCCC1)c1ccc2cnc(NC3CCC3)nc2c1 [Example 422, 2-(cyctobutylamino)-N-[1-(hydroxymethyl)cyclopentyl]quinazoline-7-carboxamide] | – | inhibition at 1 µM: 13% |
| COc1ccnc(NC(=O)c2ccc3cnc(N[C@H]4CC[C@H](O)CC4)nc3c2)c1 [Example 361, 2-[(trans-4-hydroxycyclohexyl)amino]-N-(4-methoxypyridin-2-yl)quinazoline-7-carboxamide] | 5.74 | – |
| O=C(CCc1cn2cccnc2n1)Nc1cc2cc(-c3cn[nH]c3)ccc2cn1 [Example 18, 3-imidazo[1,2-a]pyrimidin-2-yl-N-[6-(1H-pyrazol-4-yl)isoquinolin-3-yl]propanamide] | 7.49 | – |
| CCC(=O)N[C@H]1CC[C@H](Nc2ncc3cccc(OC4CCOC4)c3n2)CC1 (stereo partly drawn) [Example 185, N-(trans-4-{[8-(tetrahydrofuran-3-yloxy)quinazolin-2-yl]amino}cyclohexyl)propanamide] | 6.05 | – |
| Cc1nnc(CNC(=O)c2ccc3cnc(N[C@H]4CC[C@H](O)CC4)nc3c2)o1 [Example 355, 2-[(trans-4-hydroxycyclohexyl)amino]-N-[(5-methyl-1,3,4-oxadiazol-2-yl)methyl]quinazoline-7-carboxamide] | 5.86 | – |
| COc1ccc(CC(=O)Nc2cc3cc(-c4cn[nH]c4)ccc3cn2)cc1 [Example 1, 2-(4-methoxyphenyl)-N-[6-(1H-pyrazol-4-yl)isoquinolin-3-yl]acetamide] | 7.12 | – |
| CC(=O)OCC(C)(C)CC(=O)Nc1cc2cc(-c3cn[nH]c3)ccc2cn1 [Example 10, 2,2-dimethyl-4-oxo-4-{[6-(1H-pyrazol-4-yl)isoquinolin-3-yl]amino)butyl acetate] | 7.38 | – |
| O=C(NC1CC1)c1cccc2cnc(N[C@H]3CC[C@H](O)CC3)nc12 [Example 447, N-cyclopropyl-2-[(trans-4-hydroxycyclohexyl)amino]quinazoline-8-carboxamide] | 6.92 | – |
| CCN(CC)CCOc1cccc2cnc(N[C@H]3CC[C@H](O)CC3)nc12 [Example 261, trans-4-({8-[2-(diethylamino)ethoxy]quinazolin-2-yl}amino)cyclohexanol] | – | inhibition at 10 µM: 42% |
| O=C(N[C@H]1CC[C@H](O)CC1)c1ccc2cnc(N[C@H]3CC[C@H](O)CC3)nc2c1 [Example 328, N-(trans-4-hydroxycyclohexyl)2[(trans-4-hydroxycyclohexyl)amino]quinazoline-7-carboxamide] | 6.59 | – |
| O=C(Cc1ccc2ccccc2c1)Nc1cc2cc(-c3cn[nH]c3)ccc2cn1 [Example 5, 2-(2-naphthyl)-N-[6-(1H-pyrazol-4-yl)isoquinolin-3-yl]acetamide] | 7.10 | – |
| Cc1ccc2cnc(N[C@H]3CC[C@H](O)CC3)nc2c1OCC(=O)NC(C)C [Example 208, 2-({2-[(trans-4-hydroxycyclohexyl)amino]-7-methylquinazolin-8-yl}oxy)-N-isopropylacetamide] | 5.95 | – |
| O=C(NCCn1ccnc1)c1cccc2cnc(N[C@H]3CC[C@H](O)CC3)nc12 [Example 491, 2-[(trans-4-hydroxycycbohexyl)amino]-N-[2-(1H-imidazol-1-yl)ethyl]quinazoline-8-carboxamide] | – | inhibition at 1 µM: 13% |
| O=C(NC1CCCCC1O)c1ccc2cnc(N[C@H]3CC[C@H](O)CC3)nc2c1 (stereo partly drawn) [Example 342, N-(2-hydroxycyclohexyl)-2-[(trans-4-hydroxycyclohexyl)amino]quinazoline-7-carboxamide] | 6.08 | – |
| CC[C@@H](CO)NC(=O)c1ccc2cnc(NC3CCC3)nc2c1 [Example 416, 2-(cyclobutylamino)-N-[(1S)-1-(hydroxymethyl)propyl]quinazoline-7-carboxamide] | 5.81 | – |
| CC(C)Nc1ncc2ccc(C(=O)N[C@H](CO)c3ccccc3)cc2n1 [Example 394, N-[(1S)-2-hydroxy-1-phenylethyl]-2-(isopropylamino)quinazoline-7-carboxamide] | 6.41 | – |
| O[C@H]1CC[C@H](Nc2ncc3ccc(O[C@@H]4CCN(Cc5ccccc5)C4)cc3n2)CC1 [Example 285, trans-4-[(7-{[(3R)-1-benzylpyrrolidin-3-yl]oxy}quinazolin-2-yl)amino]cyclohexanol] | – | inhibition at 1 µM: 29% |
| O=C(CC1CCOCC1)Nc1cc2cc(-c3cn[nH]c3)ccc2cn1 [Example 7, N-[6-(1H-pyrazol-4-yl)isoquinolin-3-yl]-2-(tetrahydro-2H-pyran-4-yl)acetamide] | 7.70 | – |
| Cc1ccc2cnc(N[C@H]3CC[C@H](O)CC3)nc2c1OCC(=O)N(C)CCO [Example 212, 2-({2-[(trans-4-hydroxycyclohexyl)amino]-7-methylquinazolin-8-yl}oxy)-N-(2-hydroxyethyl)-N-methylacetamide] | 5.71 | – |
| CCC[C@@H](CO)NC(=O)c1ccc2cnc(NC3CCCCC3)nc2c1 [Example 376, 2-(cyclohexylamino)-N-[(1S)-1-(hydroxymethyl)butyl]quinazoline-7-carboxamide] | 6.86 | – |

| SMILES | pKi | further results |
| --- | --- | --- |
| C[C@@H](CO)NC(=O)c1ccc2cnc(NC3CCC3)nc2c1 [Example 437, 2-(cyclobutylamino)-N-[(1S)-2-hydroxy-1-methylethyl]quinazoline-7-carboxamide] | – | inhibition at 10 µM: 57% |
| CC(=O)N1CCC(CNC(=O)c2ccc3cnc(N[C@H]4CC[C@H](O)CC4)nc3c2)CC1 [Example 91, N-[(1-acetylpiperidin-4-yl)methyl]-2-[(trans-4-hydroxycyclohexyl)amino]quinazoline-7-carboxamide] | 6.19 | – |
| CC[C@H](CO)NC(=O)c1cccc2cnc(N[C@H]3CC[C@H](O)CC3)nc12 [Example 458, 2-[(trans-4-hydroxycyclohexyl)amino]-N-[(1R)-1-(hydroxymethyl)propyl]quinazoline-8-carboxamide] | 6.43 | – |
| C[C@H](CO)NC(=O)c1cccc2cnc(N[C@H]3CC[C@H](O)CC3)nc12 [Example 123, 2-[(trans-4-hydroxycyclohexyl)amino]-N-[(1R)-2-hydroxy-1-methylethyl]quinazoline-8-carboxamide] | 6.20 | – |
| Cc1ccc2cnc(N[C@H]3CC[C@H](O)CC3)nc2c1OCC(=O)N1CCOCC1 [Example 213, trans-4-{[7-methyl-8-(2-morpholin-4-yl-2-oxoethoxy)quinazolin-2-yl]amino} cyclohexanol] | 6.11 | – |
| O[C@H]1CC[C@H](Nc2ncc3cccc(OC[C@@H]4CCCN5CCCC[C@H]45)c3n2)CC1 [Example 263, trans-4-({8-[(1R, 9aR)-octahydro-2H-quinolizin-1-ylmethoxy]quinazolin-2-yl}amino)cyctohexanol] | – | inhibition at 10 µM: 31% |
| CC(C)C(=O)N[C@H]1CC[C@H](Nc2ncc3cccc(OC4CCOCC4)c3n2)CC1 [Example 181, 2-methyl-N-(trans-4-{[8-(tetrahydro-2H-pyran-4-yloxy)quinazolin-2-yl]amino}cyclohexyl)propanamide] | 6.11 | – |
| O=C(NC1CCc2ccccc21)c1ccc2cnc(N[C@H]3CC[C@H](O)CC3)nc2c1 (stereo partly drawn) [Example 94, N-(2,3-dihydro-1H-inden-1-yl)-2-[(trans-4-hydroxycyclohexyl)amino]quinazoline-7-carboxamide] | 6.83 | – |
| O=C(N[C@@H](CO)c1ccccc1)c1ccc2cnc(N[C@H]3CC[C@H](O)CC3)nc2c1 [Example 337, 2-[(trans-4-hydroxycyclohexyl)amino]-N-[(1R)-2-hydroxy-1-phenylethyl]quinazoline-7-carboxamide] | 6.25 | – |
| Cc1cccc(NC(=O)c2ccc3cnc(N[C@H]4CC[C@H](O)CC4)nc3c2)n1 [Example 369, 2-[(trans-4-hydroxycyclohexyl)amino]-N-(6-methylpyridin-2-yl)quinazoline-7-carboxamide] | 5.64 | – |
| O=C(N[C@@H]1Cc2ccccc2[C@H]1O)c1cccc2cnc(N[C@H]3CC[C@H](O)CC3)nc12 [Example 459, 2-[(trans-4-hydroxycyclohexyl)amino]-N-[(1R,2R)-1-hydroxy-2,3-dihydro-1H-inden-2-yl]quinazoline-8-carboxamide] | 6.40 | – |
| c1cc(CNc2cc3cc(-c4cn[nH]c4)ccc3cn2)[nH]n1 [Example 229, 6-(1H-pyrazol-4-yl)-N-(1H-pyrazol-5-ylmethyl)isoquinolin-3-amine] | – | inhibition at 10 µM: 17% |
| COc1ccc(NC(=O)c2ccc3cnc(N[C@H]4CC[C@H](O)CC4)nc3c2)cn1 [Example 349, 2-[(trans-4-hydroxycyclohexyl)amino]-N-(6-methoxypyridin-3-yl)quinazoline-7-carboxamide] | 6.00 | – |
| CC[C@@H](CO)NC(=O)c1ccc2cnc(N[C@H]3CC[C@H](O)CC3)nc2c1 [Example 334, 2-[(trans-4-hydroxycyclohexyl)amino]-N-[(1S)-1-(hydroxymethyl)propyl]quinazoline-7-carboxamide] | 6.32 | – |
| O=C(N[C@@H]1COC[C@H]1O)c1ccc2cnc(N[C@H]3CC[C@H](O)CC3)nc2c1 [Example 404, 2-[(trans-4-hydroxycyclohexyl)amino]-N-[(3R,4S)-4-hydroxytetrahydrofuran-3-yl]quinazoline-7-carboxamide] | 6.18 | – |
| O=C(N[C@H](CO)c1ccccc1)c1ccc2cnc(NC3CCC3)nc2c1 [Example 392, 2-(cyclobutylamino)-N-[(1S)-2-hydroxy-1-phenylethyl]quinazoline-7-carboxamide] | 6.41 | – |
| O=C(Nc1cc2cc(-c3cn[nH]c3)ccc2cn1)C1COc2ccccc2C1 (stereo not drawn) [Example 38, N-[6-(1H-pyrazol-4-yl)isoquinolin-3-yl]chromane-3-carboxamide] | 7.85 | – |
| CC(C(=O)Nc1cc2cc(-c3cn[nH]c3)ccc2cn1)c1ccccc1 (stereo not drawn) [Example 8, 2-phenyl-N-[6-(1H-pyrazol-4-yl)isoquinolin-3-yl]propanamide] | < 7.30 | – |
| Cc1cccc(CC(C)NC(=O)c2cccc3cnc(N[C@H]4CC[C@H](O)CC4)nc23)n1 (stereo partly drawn) [Example 475, 2-[(trans-4-hydroxycyclohexyl)amino]-N-[1-methyl-2-(6-methylpyridin-2-yl)ethyl]quinazoline-8-carboxamide] | – | inhibition at 1 µM: 11% |
